# Test results taken from PMC11845477, “Exploring the principles behind antibiotics with limited resistance” (Nature Communications, 2025).
# Assays:
# [1] = system: T1, Pseudomonas aeruginosa ATCC BAA 3107; assay: microbe, parasite or virus in culture; parameters: CLSI broth microdilution MIC; OD600 < 0.05 counted as complete growth inhibition; settings: Pseudomonas aeruginosa, BAA3107, 18 h; read-out: MIC of ancestor
# T1 construct: ATCC BAA-3107
# Protocol: (§1) A final concentration of 5 × 10^5 bacterial cells per mL were inoculated into each well containing 60 µL MHB medium. Bacterial cultures were incubated at 37 °C with continuous shaking (Infors shaker, 900 rpm with 3 mm throw) for 18 hours (2 replicates from each). Cell growth was monitored by measuring the optical density (OD600 values, using Biotek Synergy microplate reader). MIC was defined as the antibiotic concentration of complete growth inhibition (i.e., OD600 < 0.05). Relative MIC was calculated as follows:1 relativeMIC=MICevolved/MICancestor This study focused on multiple bacterial strains, as follows. For the FoR and ALE experiments, 2 strains per species were chosen: E. coli ATCC 25922, K. pneumoniae ATCC 10031, A. baumannii ATCC 17978, and P. aeruginosa ATCC BAA-3107 as sensitive (SEN) strains, and E. coli NCTC13846, K. pneumoniae ATCC 700603, A. baumannii ATCC BAA-1605 and P. aeruginosa LESB58 as multi-drug resistant (MDR) strains. Functional metagenomic screens were performed with E. coli ATCC 25922 and K. pneumoniae ATCC 10031 strains. To determine the dose-kill properties of the different antibiotics, an E. coli strain (ATCC 25922) expressing a yellow fluorescent protein (pZS2R, YFP, CHL^R) and a red fluorescent protein (pZS2R, mCherry, CHL^R) was used.
# [2] = system: T2, P. aeruginosa ATCC BAA-3107; assay: microbe, parasite or virus in culture; parameters: Serial broth microdilution MIC (CLSI), OD600 below 0.05, 384-well plates, MHB medium; settings: Pseudomonas aeruginosa, ATCCBAA3107, 18 h; ancestor strain before evolution
# T2 construct: ATCC BAA-3107
# Protocol: as §1
# [3] = system: Escherichia coli, Klebsiella pneumoniae, Acinetobacter baumannii, and Pseudomonas aeruginosa; settings: all species; cited from earlier work
SMILES,MIC [1] [µg/mL],MIC [2] [µg/mL],average increment in resistance level (relative MIC) after FoR assay [3]
Nc1nc(-n2cc(C(=O)O)c(=O)c3cc(F)c(N4CC(O)C4)c(Cl)c32)c(F)cc1F [Delafloxacin],0.0156,0.0156,–
CC(C)c1ccc(Cn2ccc3c4c(N)nc(NC5CC5)nc4ccc32)cc1 [SCH79797],–,–,less than fourfold
